In US7312206B2, “Sterol derivatives, liposomes comprising sterol derivatives and method for loading liposomes with active substances” (Novosom AG, priority 2001, dated 2007):

Legend:
[1] = test system: HeLa cells; assay: Cytotoxicity, MTT test; type: cell-based
Method: The toxic effect of the substances was investigated using the MTT test. To this end, HeLa cells were seeded at a density of 2×10^4 cells per cavity of a 96-well titer plate and cultured for two days. Liposomes of varying composition (see Table) were added to the cells at a concentration of 0.5 mM and incubated with these cells for 24 hours. Subsequently, the MTT test was performed.

[2] = Chelating of metal ions (zeta potential of liposomes); type: physicochemical; conditions: compound in the liposome membrane
Method: Liposomes are produced as in Example 4. 40 μl of these liposomes are suspended in 7 ml of buffer (10 mM potassium acetate, 10 mM HEPES, pH 4.2 or pH 7.5). Subsequently, the metal ions are added with the concentrations as indicated, and the zeta potential of the liposomes is measured.

Row | Molecule | toxic effect in the MTT test (in words) [1] | chelating of metal ions by liposomes including the compound (in words) [2]
1 | CC(C)CCC[C@@H](C)[C@H]1CC[C@H]2[C@@H]3CC=C4C[C@@H](OC(=O)NCCN(C)C)CC[C@]4(C)[C@H]3CC[C@]12C [DC-Chol, N,N-Dimethyl (2-aminoethyl) carbamoylcholesterol] | significant cytotoxic effect | –
2 | CCCCCCCC/C=C\CCCCCCCC(=O)OCC(C[N+](C)(C)C)OC(=O)CCCCCCC/C=C\CCCCCCCC (stereo not shown) [DOTAP] | significant cytotoxic effect | –
3 | Histaminylethaneamine-cholesterol hemisuccinate [His-Chol] | lesser toxic effects | capable of chelating metal ions
